“And” between values parts separate entries of the source, which are not always exact repeats. Equal entries are not always repeated.
What was measured:
Assay type in all cases: in vivo
Conditions in all cases: no safener
Wheat (Triso) [1] = test: Post-emergence herbicidal effect and safener effect on wheat, visual scoring in greenhouse
Protocol: (§1) Seeds or rhizome pieces of mono- and dicotyledonous harmful plants and of crop plants are planted in peat pots in sandy loam, covered with earth and grown in a greenhouse under good growth conditions. Alternatively to this, harmful plants occurring in the paddy rice cultivation are cultivated in pots in which water comes to 2 cm above the soil surface. 10 to 20 days after sowing, the test plants are treated in the one-to three-leaf stage. The herbicide/safener active ingredient combinations according to the invention, formulated as water-soluble powders or suspensions, and, in parallel experiments, the correspondingly formulated individual active ingredients are sprayed onto the green plant parts in various dosages using an application rate of 300 I of water/ha (converted) and, after the test plants have remained in the greenhouse under optimum growth conditions for 2-3 weeks, the effect of the preparations is scored visually in comparison with untreated controls. In the case of rice or in the case of harmful plants which occur in the rice cultivation, the active ingredients are also placed directly into the irrigation water (application analogous to the so-called granules application) or sprayed onto plants and into the irrigation water.

Corn (Aventura) [2] = test: Pre-emergence herbicidal effect and safener effect on corn, visual scoring in greenhouse
From the text: (§2) Seeds or rhizome pieces of mono- and dicotyledonous weed plants and crop plants are planted in peat pots in sandy loam and covered with earth. The herbicide/safener active ingredient combinations according to the invention, formulated as water-soluble powders or suspensions, and, in parallel experiments, the correspondingly formulated individual active ingredients were then applied to the surface of the covering earth at an application rate of 600 to 800 I of water/ha (converted) in a variety of dosages.
(§3) After the treatment, the pots were placed in the greenhouse and kept under good growth conditions for the weeds and the crop plants. Visual scoring of the plant damage or emergence damage was carried out after the test plants had emerged after a test period of 2 to 4 weeks, in comparison with untreated controls.

Wheat (Triso) [3] = test: Pre-emergence herbicidal effect and safener effect on wheat, visual scoring in greenhouse
From the text: as §2, §3

Rice (Ballila) = test: Post-emergence herbicidal effect and safener effect on rice, visual scoring in greenhouse
Protocol: as §1

Corn (Aventura) [4] = test: Post-emergence herbicidal effect and safener effect on corn, visual scoring in greenhouse
Protocol: as §1

SMILES | % effect (without safener) (Wheat (Triso) [3]; herbicide 25 g a.i./ha) | % effect (without safener) (Corn (Aventura) [2]; herbicide 50 g a.i./ha) | % effect (without safener) (Wheat (Triso) [1]; herbicide 25 g a.i./ha) | % effect (without safener) (Corn (Aventura) [4]; herbicide 25 g a.i./ha) | further results
Nc1nc(C2CC2)nc(C(=O)O)c1Cl [Compound I-1, 6-amino-5-chloro-2-cyclopropyl-4-pyrimidinecarboxylic acid] | 30% |  |  |  | % effect (without safener) (Wheat (Triso) [1]; herbicide 50 g a.i./ha): 20%; % effect (without safener) (Corn (Aventura) [2]; herbicide 100 g a.i./ha): 50%
CCOC(=O)c1nc(C2CC2)nc(N)c1Cl [Compound I-3, ethyl 6-amino-5-chloro-2-cyclopropyl-4-pyrimidinecarboxylate] |  | 20% and 25% |  |  | % effect (without safener) (Rice (Ballila); herbicide 25 g a.i./ha): 60%; % effect (without safener) (Corn (Aventura) [4]; herbicide 50 g a.i./ha): 60%
Nc1nc(-c2ccc(Cl)cc2)nc(C(=O)O)c1Cl [Compound I-109, 6-amino-5-chloro-2-(4-chlorophenyl)-4-pyrimidinecarboxylic acid] | 20% |  | 30% | 60% | % effect (without safener) (Corn (Aventura) [2]; herbicide 25 g a.i./ha): 20%
Nc1nc(C2CC2)nc(C(=O)[O-])c1Cl.[K+] [Compound I-163, potassium salt of 6-amino-5-chloro-2-cyclopropyl-4-pyrimidinecarboxylic acid] |  | 50% | 10% | 20% | % effect (without safener) (Wheat (Triso) [3]; herbicide 50 g a.i./ha): 20%
Nc1nc(C2CC2)nc(C(=O)[O-])c1Cl.[Na+] [Compound I-164, 6-amino-5-chloro-2-cyclopropyl-4-pyrimidinecarboxylic acid sodium salt] | 10% |  | 20% |  | % effect (without safener) (Rice (Ballila); herbicide 25 g a.i./ha, sodium salt): 10% and 20%; % effect (without safener) (Rice (Ballila); herbicide 50 g a.i./ha): 20%

Source: patent US20100137139A1, “HERBICIDE/SAFENER COMBINATION” (BAYER CROPSCIENCE AG, priority 2008, published 2010)
